{"source": "patent US20230201284A1", "about": "“Uses and Formulations of Cannabinoids” (priority 2020, published 2023)", "key": {"[1]": {"assay": "systemic exposure after i.p. and oral application of CBD in mice (Deiana et al.)", "format": "in vivo", "conditions": "20 mg/kg, assuming dose-proportional plasma concentrations", "procedure": "A comparative investigation for systemic exposure after i.p. and oral application of CBD in mice and rats has shown that 120 mg/kg as a single dose leads to a maximum plasma concentration of 14,000 ng/ml in mice (S. Deiana et al. (2012). Plasma and brain pharmacokinetic profile of cannabidiol (CBD), cannabidivarine (CBDV), Delta(9)-tetrahydrocannabivarin (THCV) and cannabigerol (CBG) in rats and mice following oral and intraperitoneal administration and CBD action on obsessive-compulsive behaviour. Psychopharmacology (Berl) 219(3): 859-73)."}, "[2]": {"conditions": "mice, 120 mg/kg single dose; cited from earlier work"}, "IL-6": {"test_system": "IL-6", "conditions": "animal models including diabetes, asthma, pancreatitis and hepatitis; cited from earlier work"}, "CD83": {"test_system": "CD83", "conditions": "cited from earlier work"}, "IL-6 secretion": {"test_system": "IL-6 secretion", "conditions": "cellular models, majority of cases; cited from earlier work"}, "human mononuclear cells": {"test_system": "human mononuclear cells", "conditions": "nanomolar or micromolar concentrations; cited from earlier work"}, "[3]": {"test_system": "chemically induced acute hepatitis", "conditions": "mice, 25 mg/kg; cited from earlier work"}, "NK, NKT, T and B cells": {"test_system": "NK, NKT, T and B cells", "conditions": "healthy rats, cited from earlier work"}, "[4]": {"test_system": "LPS-induced acute lung injury", "conditions": "cited from earlier work"}, "[5]": {"conditions": "n-octanol/water; cited from earlier work"}, "microglial cells": {"test_system": "microglial cells", "conditions": "1-16 μmol/l; cited from earlier work"}, "[6]": {"test_system": "ischemia-reperfusion-induced kidney injury", "conditions": "mice, 10 mg/kg after induced kidney injury; cited from earlier work"}, "[7]": {"test_system": "activated memory T cell line", "conditions": "1-5 μmol/l, cited from earlier work"}, "human neutrophils": {"test_system": "human neutrophils", "conditions": "cited from earlier work"}, "[8]": {"conditions": "prophylactic, i.p. 0.3-80 mg/kg 60 min before LPS"}, "[9]": {"conditions": "therapeutic, 6 h after LPS, 20 mg/kg"}}, "note": "Read-outs that look alike come from different tables or passages of the source.", "data": [{"compound": "C=C(C)[C@@H]1CCC(C)=C[C@H]1c1c(O)cc(CCCCC)cc1O", "note": "[CBD, 2-[(1R,6R)-3-methyl-6-(1-methylethenyl)-2-cyclohexen-1-yl]-5-pentyl-1,3-benzenediol]", "values": [{"measurement": "target peak exposure", "setting": "[1]", "value": "2,300 ng/ml"}, {"measurement": "maximum plasma concentration", "setting": "[2]", "value": "14,000 ng/ml"}, {"measurement": "circulating IL-6", "setting": "IL-6", "value": "suppress"}, {"measurement": "CD83 dendritic cell activation marker", "setting": "CD83; dendritic cells from healthy individuals", "value": "not"}, {"measurement": "CD83 dendritic cell activation marker", "setting": "CD83; dendritic cells from individuals with HIV infection", "value": "suppresses"}, {"measurement": "effective concentration for suppressive effect on IL-6 secretion", "setting": "IL-6 secretion", "value": "~5", "unit": "µM"}, {"measurement": "release of pro-inflammatory cytokines", "setting": "human mononuclear cells", "value": "suppressed"}, {"measurement": "expression of MDSCs", "setting": "[3]", "value": "induces"}, {"measurement": "pro-inflammatory cytokines such as IL-2, TNF-α and IL-6", "setting": "[3]", "value": "reduction"}, {"measurement": "numbers of NK cells and NKT cells", "setting": "NK, NKT, T and B cells; 2.5 mg/kg per day", "value": "increased"}, {"measurement": "numbers of NK cells and NKT cells", "setting": "NK, NKT, T and B cells; 5 mg/kg per day", "value": "not affected"}, {"measurement": "number of T cells including T helper cells and cytotoxic T cells and of B cells", "setting": "NK, NKT, T and B cells; daily 5 mg/kg", "value": "significantly reduced"}, {"measurement": "number of leukocytes including macrophages and neutrophils in the bronchoalveolar lavage fluid", "setting": "[4]; 20 mg/kg, after LPS-induced lung inflammation", "value": "decreases"}, {"measurement": "myeloperoxidase activity", "setting": "[4]; [8]", "value": "significantly decreased"}, {"measurement": "pro-inflammatory cytokine production including TNF-α and IL-6", "setting": "[4]; [8]", "value": "significantly decreased"}, {"measurement": "total leukocytes migration", "setting": "[4]; [8]", "value": "significantly decreased"}, {"measurement": "vascular permeability", "setting": "[4]; [8]", "value": "significantly decreased"}, {"measurement": "leukocyte migration (neutrophil, macrophages and lymphocytes) into the lungs", "setting": "[4]; [9]", "value": "decreased"}, {"measurement": "mechanical lung function", "setting": "[4]; [9]", "value": "improved"}, {"measurement": "myeloperoxidase activity in the lung tissue", "setting": "[4]; [9]", "value": "decreased"}, {"measurement": "production of proinflammatory cytokines/chemokines", "setting": "[4]; [9]", "value": "reduced"}, {"measurement": "vascular permeability", "setting": "[4]; [9]", "value": "reduced"}, {"measurement": "log P", "setting": "[5]", "value": "about 6.1"}, {"measurement": "apoptosis in microglial cells", "setting": "microglial cells", "value": "induces apoptosis"}, {"measurement": "decreased Treg17 levels and increased Th17 levels", "setting": "[6]", "value": "reversed these effects"}, {"measurement": "effect on kidney injury", "setting": "[6]", "value": "renoprotective"}, {"measurement": "IL-6 production and secretion", "setting": "[7]", "value": "decreased"}, {"measurement": "production of IL-10", "setting": "[7]", "value": "increased"}, {"measurement": "Th17 signature cytokine IL-17", "setting": "[7]; dose-dependently", "value": "decrease"}, {"measurement": "migration of human neutrophils", "setting": "human neutrophils", "value": "inhibits"}]}]}
